Among the test systems are 786-0; HCT-116; SNB-19; U-251; SF-268; PC-3; HOP-62; Malme-3M; CAKI-1; OVCAR-5; A498; DU-145; UACC-62; CCRF-CEM; MDA-MB-231; SK-MEL-2; LOX IMVI; EKVX; MOLT-4.
Holding throughout (assay): growth of human tumour cells (NCI), 48 h

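Method: 48-hour compound exposure of cells in 96-well plates, five concentrations, linear interpolation of endpoints. GI50 = concentration required for 50% inhibition of growth.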 Calls of active or inactive are those of the source. No stated cut-off is given here; in the data, active = GI50 up to about 1.1 µM and inactive = higher.

The source of these data is ChEMBL document CHEMBL1201862, “PubChem BioAssay data set” (2004).

With `COc1cc(C2C(C#N)=C(N)OC3=C2CCS(=O)(=O)c2ccc(C)cc23)cc(OC)c1OC` (configuration not stated), the GI50 in the experiment with 786-0, with HCT-116, in the experiment on SNB-19, with U-251, in the experiment with SF-268 and with PC-3 was > 100 µM (inactive) each time. In addition, the GI50 in the experiment with HOP-62, in the experiment with Malme-3M, in the experiment on CAKI-1, in the experiment with OVCAR-5, in the experiment with A498 and with DU-145 was > 100 µM (inactive) in each case. Besides, the GI50 in the experiment with UACC-62, with CCRF-CEM, in the experiment on MDA-MB-231, in the experiment on SK-MEL-2 and in the experiment on LOX IMVI was > 100 µM (inactive) each time.

In the case of `O=c1[nH]cc(/C=N\Nc2ccccc2)c(=O)[nH]1`, the GI50 in the experiment with 786-0, in the experiment with HCT-116, in the experiment on SNB-19, in the experiment on U-251, in the experiment with SF-268 and with PC-3 was > 100 µM (inactive) in each case. Besides, the GI50 is > 10 µM (inactive) in the experiment with HOP-62; > 100 µM (inactive) in the experiment on Malme-3M; > 100 µM (inactive) in the experiment on CAKI-1; > 100 µM (inactive) with OVCAR-5; > 100 µM (inactive) in the experiment with A498; > 100 µM (inactive) with DU-145. Besides, the GI50 is 66.7 µM (inactive) in the experiment on UACC-62; > 100 µM (inactive) with CCRF-CEM; > 100 µM (inactive) in the experiment with MDA-MB-231; > 100 µM (inactive) in the experiment on SK-MEL-2; 6.14 µM (inactive) in the experiment with LOX IMVI; > 100 µM (inactive) in the experiment with EKVX.

As to `CC(=O)NCCCCN(CCCNC(C)=O)C(=O)OCc1ccccc1`, the GI50 with 786-0, in the experiment on HCT-116, with U-251, with SF-268, with PC-3 and in the experiment on HOP-62 was > 100 µM (inactive) throughout. The GI50 in the experiment with Malme-3M, in the experiment on CAKI-1, with OVCAR-5, in the experiment with A498, in the experiment on DU-145 and in the experiment on UACC-62 was > 100 µM (inactive) throughout. The GI50 with CCRF-CEM, with MDA-MB-231, with SK-MEL-2, with MOLT-4, with LOX IMVI and in the experiment on EKVX was > 100 µM (inactive) throughout.

On to `COC(=O)c1c(O)ccc2c1c1c(n2Cc2ccccn2)C(=O)c2ccccc2C1=O`, for which the GI50 in the experiment with 786-0 was 30.9 µM (inactive); in the experiment with HCT-116, 79.8 µM (inactive); with SNB-19, 86.5 µM (inactive); in the experiment on U-251 it was 35.7 µM (inactive); in the experiment on SF-268, 35.9 µM (inactive); with PC-3, 58.7 µM (inactive). Also, the GI50 was 26.7 µM (inactive) in the experiment with HOP-62; 31.2 µM (inactive) in the experiment on Malme-3M; 80.5 µM (inactive) in the experiment with CAKI-1; 56.8 µM (inactive) with OVCAR-5; > 100 µM (inactive) in the experiment on A498; 42.4 µM (inactive) in the experiment on DU-145. The GI50 with UACC-62 was > 100 µM (inactive); with CCRF-CEM it was 80 µM (inactive); in the experiment with MDA-MB-231, > 100 µM (inactive); in the experiment on SK-MEL-2, 42.7 µM (inactive); in the experiment on MOLT-4 it was 94.8 µM (inactive); with EKVX, 36.7 µM (inactive).

Regarding `N=C(c1ccc2ccccc2c1)c1ccccc1Cc1ccccc1`, the GI50 is 54.6 µM (inactive) in the experiment on 786-0; 16.8 µM (inactive) in the experiment with HCT-116; > 100 µM (inactive) with SNB-19; 35.9 µM (inactive) in the experiment on U-251; 51.6 µM (inactive) in the experiment with PC-3; 39.6 µM (inactive) in the experiment with HOP-62. Besides, the GI50 is 55 µM (inactive) with CAKI-1; 36.8 µM (inactive) in the experiment on OVCAR-5; 82.8 µM (inactive) in the experiment on A498; 29.8 µM (inactive) in the experiment with DU-145; 43.3 µM (inactive) in the experiment with UACC-62; 19.5 µM (inactive) with CCRF-CEM. Further, the GI50 was > 100 µM (inactive) in the experiment with MDA-MB-231; 18.2 µM (inactive) in the experiment with SK-MEL-2; 21.7 µM (inactive) with MOLT-4; 45.6 µM (inactive) in the experiment with LOX IMVI; 17.3 µM (inactive) in the experiment with EKVX.

Regarding `O=C1/C(=C/c2ccco2)NC(=S)N1CN1CCOCC1`, the GI50 in the experiment with 786-0, in the experiment with HCT-116, with SNB-19, in the experiment with U-251, with SF-268 and in the experiment on PC-3 was > 100 µM (inactive) each time. For the same compound, the GI50 with HOP-62, in the experiment on OVCAR-5, in the experiment on A498, in the experiment with DU-145, in the experiment with UACC-62 and with CCRF-CEM was > 100 µM (inactive) in each case. The GI50 with MDA-MB-231, with SK-MEL-2, with MOLT-4, in the experiment on LOX IMVI and in the experiment with EKVX was > 100 µM (inactive) in each case.

Take `Cc1n[nH]c(C(F)(F)F)c1/N=N/N(C)C`: the GI50 in the experiment on 786-0 is 1.24 µM (inactive); with HCT-116, 1.93 µM (inactive); in the experiment on SNB-19, 15.1 µM (inactive); in the experiment on U-251, 11 µM (inactive); with SF-268, 11.4 µM (inactive); in the experiment with PC-3, 11.1 µM (inactive). Moreover, the GI50 is 10 µM (inactive) in the experiment with HOP-62; 16.6 µM (inactive) with Malme-3M; 1.64 µM (inactive) in the experiment with CAKI-1; > 100 µM (inactive) with A498; 7.69 µM (inactive) with DU-145; 6.81 µM (inactive) in the experiment with UACC-62. The GI50 is 2.63 µM (inactive) in the experiment on CCRF-CEM; 11.8 µM (inactive) in the experiment with MDA-MB-231; 17.2 µM (inactive) in the experiment on SK-MEL-2; 2.48 µM (inactive) in the experiment with MOLT-4; 1.47 µM (inactive) in the experiment with LOX IMVI; 2.25 µM (inactive) in the experiment on EKVX.

On to `CN(Cc1ccccc1)c1cc(=O)n(C)c(=O)[nH]1`, for which the GI50 in the experiment on 786-0, in the experiment with HCT-116, with SNB-19, with U-251, with SF-268 and with PC-3 was > 100 µM (inactive) each time. In addition, the GI50 in the experiment on Malme-3M is > 100 µM (inactive); in the experiment with CAKI-1 it was > 100 µM (inactive); in the experiment on OVCAR-5, > 100 µM (inactive); in the experiment on A498 it was 58.2 µM (inactive); in the experiment on DU-145, > 100 µM (inactive); in the experiment on UACC-62 it was > 100 µM (inactive). For the same compound, the GI50 with CCRF-CEM is 62.2 µM (inactive); in the experiment on MDA-MB-231, > 100 µM (inactive); in the experiment with SK-MEL-2 it was > 100 µM (inactive); in the experiment with MOLT-4, > 100 µM (inactive); with LOX IMVI, > 100 µM (inactive).

In the case of `CCn1c(-c2ccc(C)cc2)cs/c1=N\C(P(=O)(O)O)P(=O)(O)O`, the GI50 in the experiment on 786-0, in the experiment on HCT-116, in the experiment with SNB-19, in the experiment on U-251, in the experiment on SF-268 and with PC-3 was > 100 µM (inactive) throughout. Moreover, the GI50 in the experiment with HOP-62, in the experiment on Malme-3M, with CAKI-1, with OVCAR-5, in the experiment on A498 and in the experiment with DU-145 was > 100 µM (inactive) in each case. Moreover, the GI50 in the experiment on UACC-62, in the experiment with CCRF-CEM, in the experiment with MDA-MB-231, in the experiment with MOLT-4, in the experiment with LOX IMVI and in the experiment on EKVX was > 100 µM (inactive) in each case.

Regarding `Cc1ccc(C(=O)Cn2c(C(=O)/C=C/c3cccs3)nc3ccccc32)cc1`, the GI50 in the experiment with 786-0 was 45.5 µM (inactive); in the experiment with HCT-116, 43.4 µM (inactive); in the experiment with SNB-19, 58.1 µM (inactive); in the experiment on U-251, 39.1 µM (inactive); in the experiment on SF-268, 32.9 µM (inactive); in the experiment with PC-3, 28.6 µM (inactive). The GI50 is 67.1 µM (inactive) with HOP-62; 24.5 µM (inactive) with Malme-3M; > 100 µM (inactive) with OVCAR-5; 32.1 µM (inactive) with A498; 82 µM (inactive) in the experiment with DU-145; 87.1 µM (inactive) in the experiment with UACC-62. Besides, the GI50 in the experiment with CCRF-CEM is 11.5 µM (inactive); in the experiment with MDA-MB-231, 71.3 µM (inactive); with SK-MEL-2, 12.6 µM (inactive); with LOX IMVI it was 26.2 µM (inactive).

With `CCc1nc(N)nc(N)c1-c1ccc(Cl)c(Cl)c1` [ETOPRINE], the GI50 in the experiment on 786-0 is 0.653 µM (active); with HCT-116, 0.574 µM (active); in the experiment with SNB-19, 25.2 µM (inactive); in the experiment on U-251, 2.79 µM (inactive); in the experiment on SF-268, 6.62 µM (inactive); in the experiment on PC-3, 34.5 µM (inactive). For the same compound, the GI50 was 2.93 µM (inactive) in the experiment on HOP-62; 5.79 µM (inactive) in the experiment on Malme-3M; 32 µM (inactive) with CAKI-1; 7.06 µM (inactive) in the experiment on OVCAR-5; > 100 µM (inactive) with A498; 11 µM (inactive) in the experiment on DU-145. Further, the GI50 is 0.711 µM (active) in the experiment with UACC-62; > 100 µM (inactive) in the experiment with CCRF-CEM; > 100 µM (inactive) in the experiment on MDA-MB-231; 23.4 µM (inactive) in the experiment with SK-MEL-2; 3.51 µM (inactive) in the experiment with LOX IMVI; 20.9 µM (inactive) in the experiment with EKVX.
